By IC50 is commonly meant the point on the concentration scale where inhibition reaches its midpoint.

This is an account of results in ChEMBL document CHEMBL3430912, “GSK Tres Cantos Anti-Kinetoplastid Screening (TCAKS) Data”.

Data set [1] concerns Trypanosoma cruzi. Nature of the data set: GSK_TCAKS: pIC50 Trypanosoma cruzi viability assay using beta-GAL activity. This assay was run at single shot at 5uM compound concentration per well. The biological reagents consisted of NIH-3T3 host cells and trypomastigotes parasitic cells; both cell types were set to a 3.3 * 10^5 cells/mL dilution in assay DMEM by means of a CASY cell counter device using a 60um capillary. 6 uL of the mixture were dispensed per well (about 1 * 10^3 host-cells and 1 * 10^3 parasites) with a Multidrop Combi dispenser. […] In all wells, the percentage of DMSO never exceeded 0.5%. Plates incubated for four days at 37C, 5% CO2. The substrate used for the assay fluorescence intensity (FLINT) readout was resorufin-beta-D-galactopiranoside (Sigma-Aldrich) at 5uM per well. It was diluted in PBS supplemented with the soft detergent Igepal (Fluka). Format: functional, organism-based, Mus musculus. The note with it: Tulahuen, NIH3T3.

Data set [2] deals with Trypanosoma cruzi. Nature of the data set: (§1) GSK_TCAKS: pIC50 Trypanosoma cruzi Imaging: Infected Cells. […] Cells were then washed once with PBS before infection. T. cruzi trypomastigotes, collected at days 5 to 8 after infection from LLC-MK2 parasite infected cultures, were allowed to swim out for 4h at 37C from a centrifuged pellet (2,500 rpm/10 min/room temperature). Trypomastigotes were then collected and counted in a CASY Cell Counter. Trypomastigotes, in supplemented DMEM, were added to H9c2 cultures in a multiplicity of infection of 1 and incubated for 18 h. Cells were washed once with PBS before incubation of the infected H9c2 monolayer with trypsin (Life-Technologies) to detach cells from the flask. Cells were counted in a CASY Cell Counter using a 150 um capillary and their density set at 5 * 10^4 cells per mL in supplemented assay DMEM. Infected H9c2 were dispensed into 384-well poly-lysine coated assay plates at 50uL per well using a Multidrop Combi dispenser. After seeding them, the plates were incubated at 37C, 5% CO2 for 72h. Cultures were then fixed and stained by addition of 50 uL of a solution containing 8% formaldehyde and 4 uM DRAQ5 DNA dye (BioStatus, UK) per well. […] Five images were collected per well for reliable statistical analysis. Automated image analysis was performed with a script developed on Acapella High Content Imaging and Analysis Software (PerkinElmer). Output: percentage of infected cells per well as a second infection marker. Format: functional, organism-based, Rattus norvegicus. The note with it: H9c2, 4 h.

For data set [3], the system named is Trypanosoma cruzi. Nature of the data set: GSK_TCAKS: pIC50 Trypanosoma cruzi Imaging: Amastigotes/Cell. […] Cells were then washed once with PBS before infection. T. cruzi trypomastigotes, collected at days 5 to 8 after infection from LLC-MK2 parasite infected cultures, were allowed to swim out for 4h at 37C from a centrifuged pellet (2,500 rpm/10 min/room temperature). Trypomastigotes were then collected and counted in a CASY Cell Counter. Trypomastigotes, in supplemented DMEM, were added to H9c2 cultures in a multiplicity of infection of 1 and incubated for 18 h. Cells were washed once with PBS before incubation of the infected H9c2 monolayer with trypsin (Life-Technologies) to detach cells from the flask. Cells were counted in a CASY Cell Counter using a 150 um capillary and their density set at 5 * 10^4 cells per mL in supplemented assay DMEM. Infected H9c2 were dispensed into 384-well poly-lysine coated assay plates at 50uL per well using a Multidrop Combi dispenser. After seeding them, the plates were incubated at 37C, 5% CO2 for 72h. Cultures were then fixed and stained by addition of 50 uL of a solution containing 8% formaldehyde and 4 uM DRAQ5 DNA dye (BioStatus, UK) per well. […] Five images were collected per well for reliable statistical analysis. Automated image analysis was performed with a script developed on Acapella High Content Imaging and Analysis Software (PerkinElmer). Output: number of amastigotes per cell as infection level measurement. Format: functional, organism-based, Rattus norvegicus. To be noted: H9c2, 4 h.

The test system of data set [4] is Trypanosoma cruzi. Described as §1, with “H2C9” for “Trypanosoma cruzi”, “H9c2 Host Cardiomyocytes.” for “Infected Cells.”, “Number” for “percentage”, “H9c2 Host Cardiomyocytes nuclei to determine drug-related cytotoxicity.” for “infected cells per well as a second infection marker.”. Format: functional, organism-based, Rattus norvegicus. To be noted: H9c2, 4 h.
Data set [5] deals with Leishmania donovani. Nature of the data set: GSK_TCAKS: pIC50 Leishmania donovani viability assay using fluorescence intensity. Assay plates (1536-well) were prepared by adding 30nL per well of compound. For single shot assay, the final compound concentration was 5uM. […] Briefly, eGFP LdBOB axenic amastigotes were harvested, fixed and counted in a CASY cell counter (Roche-Applied Science). A final concentration of 1.5 * 10^5 cells per well were prepared in amastigote media containing 500 U/mL penicillin/streptomycin (Invitrogen) and 6uL was dispensed to each experimental well using a Multidrop Combi dispenser (Thermo Scientific). 6uL of assay media was dispensed to control columns used as reference for 100% compound response. Following incubation for 72 h at 37C, 5% CO2, 2 uL of resazurin was added to each well at a final concentration of 0.5 mM in phosphate buffered saline (PBS) with IGEPAL (Sigma-Aldrich), 0.05% (v/v). Format: functional, organism-based.

Data set [6] relates to Leishmania donovani. Nature of the data set: GSK_TCAKS: pIC50 Leishmania donovani Imaging: Infected Macrophages. Assay plates (384-well) were prepared by adding 250nL of compound to each well. For single shot assay, the final compound concentration was 5 uM. […] Automated image analysis was performed with a script developed on Acapella High Content Imaging and Analysis Software (PerkinElmer). Output: Percent of infected macrophage cells were reported for each well. Format: functional, organism-based, Homo sapiens. The note with it: THP-1.

Data set [7] deals with Leishmania donovani. Nature of the data set: GSK_TCAKS: pIC50 Leishmania donovani Imaging: Amastigotes/Macrophages. Assay plates (384-well) were prepared by adding 250nL of compound to each well. For single shot assay, the final compound concentration was 5 uM. […] Automated image analysis was performed with a script developed on Acapella High Content Imaging and Analysis Software (PerkinElmer). Output: Average number of amastigotes per macrophage cell were reported for each well. Format: functional, organism-based, Homo sapiens. To be noted: THP-1.

The subject of data set [8] is Leishmania donovani. Nature of the data set: GSK_TCAKS: pIC50 Leishmania donovani Imaging: THP-1 Host Macrophages. Assay plates (384-well) were prepared by adding 250nL of compound to each well. For single shot assay, the final compound concentration was 5 uM. […] Automated image analysis was performed with a script developed on Acapella High Content Imaging and Analysis Software (PerkinElmer). Output: THP-1 cell count were reported for each well. Format: functional, organism-based, Homo sapiens.

The test system of data set [9] is Trypanosoma brucei brucei. Nature of the data set: GSK_TCAKS: pIC50 Trypanosoma brucei viability assay using fluorescence intensity. Assay plates (1536-well) were prepared by dispensing 25nL of compound solution per well using an Echo acoustic dispenser (Labcyte). Format: functional, organism-based. To be noted: Lister 427, 2 h.
Data set [10] relates to Trypanosoma brucei brucei. Nature of the data set: GSK_TCAKS: pIC50 Trypanosoma brucei viability assay using luminiscence. Assay plates (1536-well) were prepared. T. brucei cultures were harvested and counted in a CASY cell counter. A parasite suspension was prepared at a final concentration of 5 * 10^4 cells/mL in complete HMI9 medium and 6uL was dispensed to all wells containing compounds using a Multidrop Combi dispenser. 6uL of HMI9 media with 0.4% DMSO were dispensed to control columns. Plates were incubated for 24 h at 37C, 5% CO2 then tempered for 10 min at room temperature. ATP content was quantified by adding 4 uL of CellTiter-Glo Reagent (Promega) according to the manufacturer's instructions. Luminescence was measured using a ViewLux. Format: functional, organism-based. To be noted: Lister 427, CASY. On the technique in general: ATP-based viability assays read luminescence as a measure of living cells.

Data set [11] is described as follows: GSK_TCAKS: pIC50 HepG2 human cell line viability assay using luminiscence. […] Seeding density was checked to ensure that new mono-layers were not more than 50% confluent at the time of harvesting. Cell suspension was added to 500 mL of the same medium at a final density of 1.2 * 10^5 cells/mL. This cell suspension was dispensed (25 uL, 3000 cells per well) into 384-well clear-bottom plates using a Multidrop Combi dispenser. Prior to addition of the cell suspension, the screening compounds (250 nL) were pre-dispensed into the plates with an Echo liquid handler. Plates were incubated for 48 h at 37C, 5% CO2. After incubation, plates equilibrated at room temperature for 30 min before proceeding to develop the luminescent signal. The signal developer, CellTiter-Glo Reagent, was allowed to equilibrate at room temperature for 30 min and added to the plates (25uL per well) using a Multidrop Combi dispenser. Plates were left for 10 min at room temperature for stabilization and then read using a ViewLux. Format: toxicity, cell-based.

Data set [12] deals with Sterol 14-alpha demethylase (Trypanosoma cruzi (strain CL Brener), UniProt Q7Z1V1). Nature of the data set: GSK_TCAKS: pIC50 CYP51 from Trypanosoma cruzi. Format: functional.
Chain of Sterol 14-alpha demethylase (Q7Z1V1 whole entry): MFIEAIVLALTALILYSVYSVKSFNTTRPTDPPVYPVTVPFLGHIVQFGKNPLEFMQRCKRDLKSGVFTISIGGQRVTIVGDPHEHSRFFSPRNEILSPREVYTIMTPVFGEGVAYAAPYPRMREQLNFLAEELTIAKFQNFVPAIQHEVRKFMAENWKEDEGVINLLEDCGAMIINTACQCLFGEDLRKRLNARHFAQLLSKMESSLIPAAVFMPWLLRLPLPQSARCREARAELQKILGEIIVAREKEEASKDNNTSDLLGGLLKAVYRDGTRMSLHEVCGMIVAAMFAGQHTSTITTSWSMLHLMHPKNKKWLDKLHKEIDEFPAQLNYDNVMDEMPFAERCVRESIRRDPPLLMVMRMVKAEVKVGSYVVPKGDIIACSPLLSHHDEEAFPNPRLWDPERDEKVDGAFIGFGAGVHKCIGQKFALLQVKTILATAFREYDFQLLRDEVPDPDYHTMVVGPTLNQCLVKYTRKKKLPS

With `COCc1cnc2c(c1SCc1c(F)cccc1Cl)c(=O)n(C)c(=O)n2C`, the IC50 in the data set with Trypanosoma cruzi [1] was over 50.1 µM; in the data set on Trypanosoma cruzi [2], 3.98 µM; in the data set on Trypanosoma cruzi [3], 2.51 µM; in the data set on Trypanosoma cruzi [4], over 50.1 µM; in the data set with Leishmania donovani [5], 3.98 µM; with Leishmania donovani [6] it was 5.01 µM. The IC50 is 5.01 µM in the data set on Leishmania donovani [7]; over 50.1 µM in the data set on Leishmania donovani [8]; 3.98 µM in data set [9]; over 39.8 µM in data set [10]; 25.1 µM in data set [12]. The compound further showed an IC50 at 48 h in data set [11] of over 100 µM.
`CNC(=O)C1Cc2ccccc2N1C(=O)COc1cccc(OC)c1` (configuration not stated): the IC50 in the data set on Trypanosoma cruzi [1], with Trypanosoma cruzi [2], in the data set on Trypanosoma cruzi [3], in the data set on Trypanosoma cruzi [4], in the data set with Leishmania donovani [5] and in the data set on Leishmania donovani [6] was over 50.1 µM each time. The IC50 in the data set on Leishmania donovani [7] is over 50.1 µM; with Leishmania donovani [8], over 50.1 µM; in [9], 0.631 µM; in data set [10] it was 1 µM; in data set [12], 100 µM. The same compound gave an IC50 at 48 h in data set [11] of over 100 µM.
Turning to `CCOc1ccc(OCC(=O)N2c3ccccc3CC2C(=O)NC)cc1` (configuration not stated), the IC50 with Trypanosoma cruzi [1], in the data set with Trypanosoma cruzi [2], in the data set on Trypanosoma cruzi [3], in the data set with Trypanosoma cruzi [4], in the data set with Leishmania donovani [5] and with Leishmania donovani [6] was over 50.1 µM each time. The IC50 with Leishmania donovani [7] is over 50.1 µM; in the data set with Leishmania donovani [8], over 50.1 µM; in data set [9], 0.501 µM; in data set [10] it was 0.794 µM; in [12] it was over 100 µM. The same compound had an IC50 at 48 h in [11] of over 100 µM.
As for `CNC(=O)C1Cc2ccccc2N1C(=O)Cc1ccccc1` (configuration not stated), the IC50 in the data set with Trypanosoma cruzi [1], in the data set with Trypanosoma cruzi [2], in the data set with Trypanosoma cruzi [3], in the data set with Trypanosoma cruzi [4], in the data set with Leishmania donovani [5] and with Leishmania donovani [6] was over 50.1 µM each time. Further, the IC50 in the data set with Leishmania donovani [7] was over 50.1 µM; with Leishmania donovani [8], over 50.1 µM; in data set [9], 0.631 µM; in [10], 1 µM; in data set [12] it was over 100 µM. This compound also showed an IC50 at 48 h in data set [11] of over 100 µM.
Take `CNC(=O)C1Cc2ccccc2N1C(=O)Cc1ccc(OC)cc1` (configuration not stated): the IC50 is over 50.1 µM in the data set with Trypanosoma cruzi [1]; over 50.1 µM with Trypanosoma cruzi [2]; over 50.1 µM in the data set with Trypanosoma cruzi [3]; over 50.1 µM with Trypanosoma cruzi [4]; over 50.1 µM in the data set with Leishmania donovani [5]; 7.94 µM in the data set with Leishmania donovani [6]. Also, the IC50 in the data set with Leishmania donovani [7] is 12.6 µM; in the data set with Leishmania donovani [8], 7.94 µM; in data set [9], 0.398 µM; in [10], 0.501 µM; in data set [12], over 100 µM. Further, the IC50 at 48 h in data set [11] was over 100 µM.
Consider `CCOc1ccc(CC(=O)N2c3ccccc3CC2C(=O)NC)cc1` (configuration not stated), for which the 50% inhibitory concentration (IC50) with Trypanosoma cruzi [1], in the data set on Trypanosoma cruzi [2], in the data set on Trypanosoma cruzi [3], with Trypanosoma cruzi [4], in the data set on Leishmania donovani [5] and in the data set on Leishmania donovani [6] was over 50.1 µM each time. The IC50 is over 50.1 µM in the data set on Leishmania donovani [7]; over 50.1 µM in the data set on Leishmania donovani [8]; 0.501 µM in data set [9]; 0.501 µM in data set [10]; over 100 µM in [12]. Moreover, the IC50 at 48 h in data set [11] is over 100 µM.
